Assay: mn = molality of the nth substance listed, in mol/kg
Conditions: 100 kPa, Liquid, Alternating current cell with electrodes

CCCCCCCCCCCC(=O)[O-].[Na+] [sodium dodecanoate] + O
Conditions | electrical conductivity [S/m]
298.15 K, m1 = 0.01084 | 0.0726
298.15 K, m1 = 0.01211 | 0.0809
298.15 K, m1 = 0.01337 | 0.0892
298.15 K, m1 = 0.01462 | 0.0974
298.15 K, m1 = 0.01585 | 0.105
298.15 K, m1 = 0.01707 | 0.113
298.15 K, m1 = 0.01827 | 0.121
298.15 K, m1 = 0.01946 | 0.129
298.15 K, m1 = 0.02064 | 0.136
298.15 K, m1 = 0.0218 | 0.143
298.15 K, m1 = 0.02295 | 0.151
298.15 K, m1 = 0.02408 | 0.158
298.15 K, m1 = 0.0252 | 0.165
298.15 K, m1 = 0.02631 | 0.172
298.15 K, m1 = 0.02741 | 0.178
298.15 K, m1 = 0.02849 | 0.183
298.15 K, m1 = 0.02957 | 0.187
298.15 K, m1 = 0.03063 | 0.1909
298.15 K, m1 = 0.03168 | 0.194
298.15 K, m1 = 0.03271 | 0.198
298.15 K, m1 = 0.03374 | 0.201
298.15 K, m1 = 0.03476 | 0.204
298.15 K, m1 = 0.03576 | 0.207
298.15 K, m1 = 0.03675 | 0.2102
308.15 K, m1 = 0.01107 | 0.0928
308.15 K, m1 = 0.01239 | 0.103
308.15 K, m1 = 0.0137 | 0.114
308.15 K, m1 = 0.01499 | 0.125
308.15 K, m1 = 0.01626 | 0.135
308.15 K, m1 = 0.01752 | 0.145
308.15 K, m1 = 0.01876 | 0.155
308.15 K, m1 = 0.01999 | 0.165
308.15 K, m1 = 0.0212 | 0.175
308.15 K, m1 = 0.0224 | 0.185
308.15 K, m1 = 0.02359 | 0.194
308.15 K, m1 = 0.02476 | 0.203
308.15 K, m1 = 0.02591 | 0.212
308.15 K, m1 = 0.02706 | 0.219
308.15 K, m1 = 0.02819 | 0.225
308.15 K, m1 = 0.0293 | 0.231
308.15 K, m1 = 0.03041 | 0.236
308.15 K, m1 = 0.0315 | 0.2405
308.15 K, m1 = 0.03257 | 0.245
308.15 K, m1 = 0.03364 | 0.249
308.15 K, m1 = 0.0347 | 0.254
308.15 K, m1 = 0.03574 | 0.258
308.15 K, m1 = 0.03677 | 0.262
308.15 K, m1 = 0.03779 | 0.266
318.15 K, m1 = 0.01302 | 0.131
318.15 K, m1 = 0.01423 | 0.142
318.15 K, m1 = 0.01542 | 0.154
318.15 K, m1 = 0.0166 | 0.165
318.15 K, m1 = 0.01777 | 0.176
318.15 K, m1 = 0.01892 | 0.188
318.15 K, m1 = 0.02006 | 0.198
318.15 K, m1 = 0.02118 | 0.209
318.15 K, m1 = 0.02229 | 0.22
318.15 K, m1 = 0.02339 | 0.23
318.15 K, m1 = 0.02448 | 0.24
318.15 K, m1 = 0.02555 | 0.249
318.15 K, m1 = 0.02661 | 0.258
318.15 K, m1 = 0.02766 | 0.265
318.15 K, m1 = 0.0287 | 0.272
318.15 K, m1 = 0.02972 | 0.278
318.15 K, m1 = 0.03074 | 0.283
318.15 K, m1 = 0.03174 | 0.288
318.15 K, m1 = 0.03274 | 0.293
318.15 K, m1 = 0.03372 | 0.298
318.15 K, m1 = 0.03469 | 0.303
318.15 K, m1 = 0.03565 | 0.308
318.15 K, m1 = 0.0366 | 0.312
318.15 K, m1 = 0.03754 | 0.317
328.15 K, m1 = 0.01297 | 0.151
328.15 K, m1 = 0.01413 | 0.164
328.15 K, m1 = 0.01527 | 0.177
328.15 K, m1 = 0.01641 | 0.189
328.15 K, m1 = 0.01752 | 0.202
328.15 K, m1 = 0.01863 | 0.214
328.15 K, m1 = 0.01972 | 0.226
328.15 K, m1 = 0.0208 | 0.238
328.15 K, m1 = 0.02187 | 0.249
328.15 K, m1 = 0.02292 | 0.26
328.15 K, m1 = 0.02397 | 0.271
328.15 K, m1 = 0.025 | 0.282
328.15 K, m1 = 0.02602 | 0.293
328.15 K, m1 = 0.02703 | 0.303
328.15 K, m1 = 0.02802 | 0.311
328.15 K, m1 = 0.02901 | 0.319
328.15 K, m1 = 0.02999 | 0.326
328.15 K, m1 = 0.03095 | 0.332
328.15 K, m1 = 0.03191 | 0.338
328.15 K, m1 = 0.03285 | 0.344
328.15 K, m1 = 0.03379 | 0.35
328.15 K, m1 = 0.03471 | 0.355
328.15 K, m1 = 0.03563 | 0.36
328.15 K, m1 = 0.03653 | 0.366

— the NIST ThermoML archive (doi:10.1016/j.jct.2014.12.011)
